US9701709B2 (REATA PHARMACEUTICALS, INC., priority 2012, dated 2017)
Read-outs that look alike come from different tables or passages of the source.

Assays:
pulmonary function = assay: Pulmonary evaluation in rats; type: in vivo, rat; details: single oral dose up to and including 30 mg/kg
Description: One additional group of 8 animals/sex served as the control and received vehicle (sesame oil).
Observations for mortality, morbidity, injury, and availability of food and water were conducted twice daily for all animals. Clinical observations were conducted prior to dosing, approximately 4 h post-dose, and following completion of the 8-h pulmonary monitoring period. […] Pulmonary function (respiratory rate, tidal volume, and minute volume) was monitored for at least 1 h prior to dosing to establish a baseline and for at least 8 h post-dose.

[1] = test system: total glutathione in AML-12 hepatocyte cell line; assay: Total glutathione (GSH-Glo) in AML-12; type: cell-based, mouse; details: AML-12, 24 h, 15.6 nM
Source text: Glutathione and NADPH are critical factors required for the maintenance of cellular redox capacity. […] Data shown are representative of two independent experiments.

[2] = test system: aqueous humor protein after paracentesis; assay: Ocular inflammation (paracentesis) in rabbits; type: in vivo, rabbit; details: 0.01% RTA 408 in the formulation, instillation
Description: Each rabbit was given three instillations within 60 min before induction of paracentesis and two instillations within 30 min after induction of paracentesis. Each instillation was 50 μL and given in both eyes. Aqueous humor for 6 animals per time-point was collected 30 min and again 2 h after induction of paracentesis. The amount of inflammation was determined by protein concentration in the aqueous humor.

[3] = Distribution into mouse tissues after PO QD×3; type: in vivo; details: mice PO QD×3 25 mg/kg, 6 h after last dose, semi-quantitative
Description: Semi-quantitative analysis of drug content was performed.

[4] = test system: DU-145 prostate cancer cell line; assay: Cytotoxicity in combination with docetaxel in DU-145; type: cell-based; details: RTA 408 0.125 to 0.75 μM
Source text: This evidence supports the concept that RTA 408 could act synergistically with cancer therapeutic agents and may be used in some embodiments to provide greater efficacy in treating cancer patients.

[5] = test system: TNF-α-induced NF-κB activation in A549/NF-κB-Luc cells; assay: TNF-α-induced NF-κB luciferase reporter in A549/NF-κB-Luc; type: cell-based; details: Homo sapiens
Source text: (b) TNF-α-induced activation of an NF-κB luciferase reporter in the human A549 cell line.
NF-κB is a transcription factor that plays a central role in the regulation of many immune and inflammatory responses. […] The NIH3T3/NF-κB-luc cell line maintains a chromosomal integration of a Firefly luciferase reporter construct regulated by eight copies of the NF-κB response element. The effects of these compounds can be quantified by measuring the value of the NF-κB IC50.

[6] = test system: micronucleated polychromatic erythrocytes; assay: In vivo micronucleus study
[7] = Oral pharmacokinetics, statements pooled over mice, rats, and monkeys; type: in vivo; details: mouse, rat, monkey, plasma; after oral administration; read-out: Apparent terminal half-life
Description: Measurements were performed on TQD and QToF mass spectrometers (Waters).
Following oral administration of a suspension formulation at doses of 10 to 100 mg/kg, maximal concentrations were observed within 1 to 2 h in mice, and within 1 to 24 h in rats and monkeys.

[8] = test system: fractionated radiation dermatitis; assay: Fractionated radiation dermatitis in Balb/c mice; type: in vivo, mouse; details: for % Days ≧ 2 (dermatitis score) / % Days ≧ 3 (dermatitis score): 6 × 10 Gy
Description: The mice were irradiated on days 0-2 and 5-7 with six 10-Gy doses […]. Clinical dermatitis scores for the mice were evaluated blindly every two days from day 4 until the end of the study. […] Study and treatment parameters can be found in Table 6.
By analyzing the average clinical scores that were shown in FIG. 46, an area under the curve (AUC) analysis was performed, which yielded the severity of the dermatitis relative to how long the dermatitis persisted.

cardiovascular function = assay: Cardiovascular evaluation in conscious cynomolgus monkeys (telemetry); type: in vivo, cynomolgus monkey
Description: Animals were instrumented with telemetry transmitters for measurement of body temperature, blood pressure, heart rate, and electrocardiogram (ECG) evaluation. Body temperature, systolic, diastolic, and mean arterial blood pressure, heart rate, and ECG parameters (QRS duration and RR, PR, and QT intervals) were monitored continuously from at least 2 h pre-dose until at least 24 h post-dose. ECG tracings were printed at designated time points from the cardiovascular monitoring data and were qualitatively evaluated by a board-certified veterinary cardiologist.
Observations for morbidity, mortality, injury, and availability of food and water were conducted at least twice daily for all animals. Clinical observations were conducted pre-dose, approximately 4 h post-dose, and following completion of the cardiovascular monitoring period. Body weights were measured and recorded on the day prior to each treatment administration.

SMILES: CC1(C)CC[C@]2(NC(=O)C(C)(F)F)CC[C@]3(C)[C@H](C(=O)C=C4[C@@]5(C)C=C(C#N)C(=O)C(C)(C)[C@@H]5CC[C@]43C)[C@@H]2C1 [RTA 408, N-((4aS,6aR,6bS,8aR,12aS,14aR,14bS)-11-cyano-2,2,6a,6b,9,9,12a-heptamethyl-10,14-dioxo-1,2,3,4,4a,5,6,6a,6b,7,8,8a,9,10,12a,14,14a,14b-octadecahydropicen-4a-yl)-2,2-difluoropropanamide]
- Pulmonary endpoints (respiratory rate, tidal volume, minute volume) (pulmonary function): did not produce any adverse effects
- Increase in total glutathione [1]: > 2 fold
- Aqueous humor protein [2]: reduction in aqueous humor protein similar to that of the highest concentration of any of the other reference compounds
- concentration at 6 h ([3]; brain, read-out: Drug content, Brain): 1080 nM
- concentration at 6 h ([3]; kidney, read-out: Drug content, Kidney): 1600 nM
- concentration at 6 h ([3]; liver, read-out: Drug content, Liver): 985 nM
- concentration at 6 h ([3]; lung, read-out: Drug content, Lung): 533 nM
- concentration at 6 h ([3]; plasma, read-out: Drug content, Plasma): 51 nM
- concentration at 6 h ([3]; whole blood, read-out: Drug content, Whole Blood): 679 nM
- Cytotoxicity of docetaxel in combination [4]: amplified the cytotoxicity of the chemotherapeutic agent in a statistically significant fashion
- IC50 ([5]; not viability normalized, read-out: NF-κB IC50, human A549 cell line (further experimentation)): 1.7 µM
- IC50 ([5]; read-out: NF-κB IC50, human A549 cell line, viability normalized): 1.7 µM
- Change from Control (%) ([6]; 125 mg/kg, 24-h timepoint): −8%
- Number of MPCE/1000 PCE (Mean +/− SD) ([6]; 125 mg/kg, 24-h timepoint): 0.3 ± 0.27
- Number of MPCE/PCE Scored ([6]; 125 mg/kg, 24-h timepoint): 3/10000
- PCE/Total Erythrocytes (Mean +/− SD) ([6]; 125 mg/kg, 24-h timepoint): 0.543 ± 0.03
- Change from Control (%) ([6]; 125 mg/kg, 48-h timepoint): −14%
- Number of MPCE/1000 PCE (Mean +/− SD) ([6]; 125 mg/kg, 48-h timepoint): 0.2 ± 0.27
- Number of MPCE/PCE Scored ([6]; 125 mg/kg, 48-h timepoint): 2/10000
- PCE/Total Erythrocytes (Mean +/− SD) ([6]; 125 mg/kg, 48-h timepoint): 0.453 ± 0.03
- Change from Control (%) ([6]; 250 mg/kg, 24-h timepoint): −12%
- Number of MPCE/1000 PCE (Mean +/− SD) ([6]; 250 mg/kg, 24-h timepoint): 0.3 ± 0.27
- Number of MPCE/PCE Scored ([6]; 250 mg/kg, 24-h timepoint): 3/10000
- PCE/Total Erythrocytes (Mean +/− SD) ([6]; 250 mg/kg, 24-h timepoint): 0.520 ± 0.06
- Change from Control (%) ([6]; 250 mg/kg, 48-h timepoint): −26%
- Number of MPCE/1000 PCE (Mean +/− SD) ([6]; 250 mg/kg, 48-h timepoint): 0.2 ± 0.27
- Number of MPCE/PCE Scored ([6]; 250 mg/kg, 48-h timepoint): 2/10000
- PCE/Total Erythrocytes (Mean +/− SD) ([6]; 250 mg/kg, 48-h timepoint): 0.391 ± 0.02
- Change from Control (%) ([6]; 500 mg/kg, 24-h timepoint): −28%
- Number of MPCE/1000 PCE (Mean +/− SD) ([6]; 500 mg/kg, 24-h timepoint): 0.0 ± 0.00
- Number of MPCE/PCE Scored ([6]; 500 mg/kg, 24-h timepoint): 0/10000
- PCE/Total Erythrocytes (Mean +/− SD) ([6]; 500 mg/kg, 24-h timepoint): 0.426 ± 0.07
- Change from Control (%) ([6]; 500 mg/kg, 48-h timepoint): −36%
- Number of MPCE/1000 PCE (Mean +/− SD) ([6]; 500 mg/kg, 48-h timepoint): 0.3 ± 0.45
- Number of MPCE/PCE Scored ([6]; 500 mg/kg, 48-h timepoint): 3/10000
- PCE/Total Erythrocytes (Mean +/− SD) ([6]; 500 mg/kg, 48-h timepoint): 0.339 ± 0.05
- Change from Control (%) ([6]; 1000 mg/kg, 24-h timepoint): −15%
- Number of MPCE/1000 PCE (Mean +/− SD) ([6]; 1000 mg/kg, 24-h timepoint): 0.2 ± 0.27
- Number of MPCE/PCE Scored ([6]; 1000 mg/kg, 24-h timepoint): 2/10000
- PCE/Total Erythrocytes (Mean +/− SD) ([6]; 1000 mg/kg, 24-h timepoint): 0.498 ± 0.05
- Change from Control (%) ([6]; 1000 mg/kg, 48-h timepoint): −35%
- Number of MPCE/1000 PCE (Mean +/− SD) ([6]; 1000 mg/kg, 48-h timepoint): 0.1 ± 0.22
- Number of MPCE/PCE Scored ([6]; 1000 mg/kg, 48-h timepoint): 1/10000
- PCE/Total Erythrocytes (Mean +/− SD) ([6]; 1000 mg/kg, 48-h timepoint): 0.344 ± 0.04
- Change from Control (%) ([6]; 1500 mg/kg, 24-h timepoint): −15%
- Number of MPCE/1000 PCE (Mean +/− SD) ([6]; 1500 mg/kg, 24-h timepoint): 0.4 ± 0.22
- Number of MPCE/PCE Scored ([6]; 1500 mg/kg, 24-h timepoint): 4/10000
- PCE/Total Erythrocytes (Mean +/− SD) ([6]; 1500 mg/kg, 24-h timepoint): 0.499 ± 0.06
- Change from Control (%) ([6]; 1500 mg/kg, 48-h timepoint): −39%
- Number of MPCE/1000 PCE (Mean +/− SD) ([6]; 1500 mg/kg, 48-h timepoint): 0.4 ± 0.42
- Number of MPCE/PCE Scored ([6]; 1500 mg/kg, 48-h timepoint): 4/10000
- PCE/Total Erythrocytes (Mean +/− SD) ([6]; 1500 mg/kg, 48-h timepoint): 0.376 ± 0.05
- Change from Control (%) ([6]; 2000 mg/kg, 24-h timepoint): −10%
- Number of MPCE/1000 PCE (Mean +/− SD) ([6]; 2000 mg/kg, 24-h timepoint): 0.2 ± 0.27
- Number of MPCE/PCE Scored ([6]; 2000 mg/kg, 24-h timepoint): 2/10000
- PCE/Total Erythrocytes (Mean +/− SD) ([6]; 2000 mg/kg, 24-h timepoint): 0.531 ± 0.05
- Change from Control (%) ([6]; 2000 mg/kg, 48-h timepoint): −32%
- Number of MPCE/1000 PCE (Mean +/− SD) ([6]; 2000 mg/kg, 48-h timepoint): 0.1 ± 0.22
- Number of MPCE/PCE Scored ([6]; 2000 mg/kg, 48-h timepoint): 1/10000
- PCE/Total Erythrocytes (Mean +/− SD) ([6]; 2000 mg/kg, 48-h timepoint): 0.360 ± 0.03
- Genotoxicity in the In Vivo Micronucleus Study ([6]; 125-2000 mg/kg, 24-h and 48-h timepoints): 63415 is Negative for Genotoxicity in the In Vivo Micronucleus Study
- half-life [7]: 6 to 26 h
- Average clinical dermatitis score ([8]; 0.1% to 1% topical formulations): statistically significant improvement in the scores
- % Days ≧ 2 (dermatitis score) ([8]; topical 0.01%): 54%
- % Days ≧ 3 (dermatitis score) ([8]; topical 0.01%): 29%
- % Days ≧ 2 (dermatitis score) ([8]; topical 0.1%): 40%
- % Days ≧ 3 (dermatitis score) ([8]; topical 0.1%): 13%
- % Days ≧ 3 (dermatitis score) ([8]; topical 1%, vehicle 33%): 6%
- % Days ≧ 2 (dermatitis score) ([8]; topical 1%, vehicle 60%): 21%
- Increase in the corrected QT interval (on average) (cardiovascular function; 100 mg/kg oral, not considered treatment related): 1.6%
- Cardiovascular function (cardiovascular function; oral, doses up to and including 100 mg/kg): produced no effects on cardiovascular function
